Reference: the NIST ThermoML archive (doi:10.1021/je3010535)
Values joined by “and” are separate entries in the source; they are usually repeats but may differ in a detail not shown here. Equal entries are not always repeated. ± gives the expanded uncertainty stated by the source.

Experiment: Henry's Law constant (molality scale); of the first substance listed, at infinite dilution; mn = molality of the nth substance listed, in mol/kg
Conditions: Liquid, Chromatography, m1 = 0

SMILES	Henry's Law constant (274.15 K)	Henry's Law constant (296.15 K)	Henry's Law constant (313.15 K)	Henry's Law constant (326.15 K)	Henry's Law constant (333.15 K)	Henry's Law constant (294.65 K)	Henry's Law constant (331.15 K)	Henry's Law constant (310.15 K)	Henry's Law constant (320.15 K)
Cc1ccc(C)cc1 [1,4-dimethylbenzene] + O	147 ± 59 kPa·kg/mol	457 ± 180 kPa·kg/mol	1170 ± 470 kPa·kg/mol	2090 ± 840 kPa·kg/mol		381 kPa·kg/mol and 439 kPa·kg/mol	1810 ± 730 kPa·kg/mol		
CCCCC(C)=O [2-hexanone] + O	0.551 ± 0.17 kPa·kg/mol	7.07 ± 2.1 kPa·kg/mol			136 ± 41 kPa·kg/mol	4.89 kPa·kg/mol and 5.91 kPa·kg/mol	122 ± 36 kPa·kg/mol	17.9 ± 5.4 kPa·kg/mol	48.2 ± 14 kPa·kg/mol
CCC(C)c1ccccc1 (stereo not given) [(1-methylpropyl)benzene] + O	251 kPa·kg/mol	634 kPa·kg/mol	2690 kPa·kg/mol	4160 kPa·kg/mol			2310 kPa·kg/mol	1100 kPa·kg/mol	
Cl/C=C/CCl [(E)-1,3-dichloro-1-propene] + O	52.9 ± 16 kPa·kg/mol	153 ± 46 kPa·kg/mol				144 kPa·kg/mol	929 ± 280 kPa·kg/mol	300 ± 90 kPa·kg/mol	
Cl/C=C\CCl [(Z)-1,3-dichloro-1-propene] + O	25.3 ± 7.6 kPa·kg/mol	94.4 ± 28 kPa·kg/mol				87.5 kPa·kg/mol and 89.1 kPa·kg/mol	657 ± 200 kPa·kg/mol	202 ± 61 kPa·kg/mol	386 ± 120 kPa·kg/mol
Clc1ccccc1 [chlorobenzene] + O	83.7 ± 25 kPa·kg/mol	270 ± 81 kPa·kg/mol	532 ± 160 kPa·kg/mol	1050 ± 310 kPa·kg/mol		246 kPa·kg/mol and 238 kPa·kg/mol	1180 ± 350 kPa·kg/mol	423 ± 130 kPa·kg/mol	
ClC(Br)Br [chlorodibromomethane] + O	22.7 ± 6.8 kPa·kg/mol	85.7 ± 26 kPa·kg/mol				80.5 kPa·kg/mol and 82.2 kPa·kg/mol	536 ± 160 kPa·kg/mol	179 ± 54 kPa·kg/mol	327 ± 98 kPa·kg/mol
CC1CCCCC1 [methylcyclohexane] + O	1060 ± 320 kPa·kg/mol	2010 ± 600 kPa·kg/mol	9440 ± 2800 kPa·kg/mol	15600 ± 4700 kPa·kg/mol		2350 kPa·kg/mol and 2300 kPa·kg/mol			
ClC(Cl)=C(Cl)Cl [tetrachloroethene] + O	320 ± 130 kPa·kg/mol	813 ± 330 kPa·kg/mol	2240 ± 900 kPa·kg/mol	2750 ± 1100 kPa·kg/mol		755 kPa·kg/mol and 879 kPa·kg/mol	5600 ± 2200 kPa·kg/mol	2470 ± 990 kPa·kg/mol	
Cc1ccccc1 [toluene] + O	164 ± 49 kPa·kg/mol	489 ± 150 kPa·kg/mol	982 ± 290 kPa·kg/mol	1840 ± 550 kPa·kg/mol		459 kPa·kg/mol and 470 kPa·kg/mol	3030 ± 910 kPa·kg/mol	316 ± 95 kPa·kg/mol	

Now from value to compound, other results behind:

Henry's Law constant (274.15 K)	Henry's Law constant (296.15 K)	Henry's Law constant (313.15 K)	Henry's Law constant (326.15 K)	Henry's Law constant (333.15 K)	SMILES	Henry's Law constant (294.65 K)	Henry's Law constant (331.15 K)	Henry's Law constant (310.15 K)	Henry's Law constant (320.15 K)
189 ± 75 kPa·kg/mol	562 ± 220 kPa·kg/mol	2070 ± 830 kPa·kg/mol	3330 ± 1300 kPa·kg/mol		CC(C)(C)c1ccccc1 [(1,1-dimethylethyl)benzene] + O	448 kPa·kg/mol and 554 kPa·kg/mol	2160 ± 860 kPa·kg/mol	1020 ± 410 kPa·kg/mol	
193 ± 58 kPa·kg/mol	528 ± 160 kPa·kg/mol	832 ± 250 kPa·kg/mol	1410 ± 420 kPa·kg/mol		c1ccccc1 [benzene] + O	480 kPa·kg/mol and 474 kPa·kg/mol	2240 ± 670 kPa·kg/mol	1190 ± 360 kPa·kg/mol	
162 kPa·kg/mol	533 kPa·kg/mol	1290 kPa·kg/mol	2320 kPa·kg/mol		CCc1ccccc1 [ethylbenzene] + O		1830 kPa·kg/mol		
212 ± 64 kPa·kg/mol	622 ± 190 kPa·kg/mol	1960 ± 590 kPa·kg/mol	3260 ± 980 kPa·kg/mol		CC(C)c1ccccc1 [isopropylbenzene] + O	536 kPa·kg/mol and 588 kPa·kg/mol	3130 ± 940 kPa·kg/mol	1380 ± 410 kPa·kg/mol	
62.4 ± 19 kPa·kg/mol	224 ± 67 kPa·kg/mol	507 ± 150 kPa·kg/mol	925 ± 280 kPa·kg/mol		C=Cc1ccccc1 [styrene] + O	196 kPa·kg/mol	972 ± 290 kPa·kg/mol	382 ± 110 kPa·kg/mol	
